# Results published in patent US20180280393A1, “METHODS AND COMPOSITIONS FOR TREATMENT OF METASTATIC AND REFRACTORY CANCERS AND TUMORS” (The Wistar Institute of Anatomy and Biology, priority 2015, published 2018).
# How the values were obtained:
# human T cells [1] = experiment: aAPC (anti-CD3/anti-CD28)-induced human T cell proliferation, CELLTRACE; format: cell-based; details: 7 days
# Procedure: Four plots show proliferation of CD8 cells after 7 days is shown. […] Proliferation of CD8 cells after 7 days is shown. T cell stimulation-For human T cell proliferation assays, peripheral blood lymphocytes were obtained by leukapheresis/elutriation and Miltenyi bead-purified and K562 cells expressing human CD32 were generated as previously described^41. […] were γ-irradiated (100 Gy) and loaded with anti-CD3 (500 ng/ml, clone OKT3; eBioscience) plus anti-CD28 (500 ng/ml, clone 15E8; EMD Millipore) antibodies at room temperature for 10 minutes. PBMCs were labeled with CELLTRACE Violet stain (Invitrogen) according to the manufacturer's instructions and cocultured with loaded […] cells at a 10:1 T cells:[…] ratio or activated with ConA (2 μg/ml, Sigma). Proliferation of stimulated T cells was determined 7 days later by FACS and Division Index was calculated using FlowJo software.
# human T cells [2] = experiment: ConA-induced activation and expansion of human T cells (high-throughput screen); format: cell-based
# Procedure: T cell stimulation—For human T cell proliferation assays, peripheral blood lymphocytes were obtained by leukapheresis/elutriation and Miltenyi bead-purified and K562 cells expressing human CD32 were generated as previously described^41. […] PBMCs were labeled with CELLTRACE Violet stain (Invitrogen) according to the manufacturer's instructions and cocultured with loaded K32 cells at a 10:1 T cells:K32 ratio or activated with ConA (2 μg/ml, Sigma). Proliferation of stimulated T cells was determined 7 days later by FACS and Division Index was calculated using FlowJo software.
# (§1) EC50 values were calculated from normalized percent inhibition data using non-linear curve fitting in PRISM software.
# MCF-7 tumor cells = experiment: MCF-7 cell proliferation, MTS assay; format: cell-based, human; details: 2 days
# Procedure: Representative results from one of two independent experiments.
# (§2) Cell proliferation assays—Cells were plated in 96-well plates. Compounds were added the next morning, and cell proliferation was measured 48 hrs later with the […] 96 MTS assay (Promega) according to the manufacturer's instructions. Molecular screening of compounds on A2780 cells was performed by adding compounds the morning after plating in 384-well plates and measuring proliferation 72 hrs later with resazurin fluorescence. Normalized percent inhibition (NPI) was calculated with respect to fluorescence values obtained with DMSO negative control and doxorubicin (5 μM) positive control as NPI=100%*(DMSO−compound)/(DMSO−doxorubicin). TCR ligation of human CD8 T cells
# [3] = test system: A2780 ovarian cancer cells; experiment: Molecular screening of compounds on A2780 cell proliferation (resazurin fluorescence); format: cell-based, human; details: except at a high concentration
# Procedure: as §2, §1
# ERK1/2 phosphorylation = experiment: TCR ligation of human CD8 T cells, Western blot for ERK1/2 phosphorylation; format: cell-based
# Procedure: FIG. 2C is a blot showing FACS-sorted human CD8 T cells that were stimulated by anti-CD3/CD28 crosslinking in the presence of the indicated compounds as described in methods. After 10 min, cells were harvested for Western blotting.
# CD8+ cells were sorted from PBMCs and rested overnight in R10. T cells (0.5×10^6 per condition) were stained with OKT3-biotin (BioLegend, 10 μg/ml) for 15 mins on ice, and washed in cold PBS. TCR ligation was performed by adding streptavidin (Promega, 25 μg/ml) and anti-CD28 (Millipore, clone 15E8, 1 μg/ml) in the presence of indicated inhibitors for 10 min at 37° C.
# Western blotting—Cells were lysed in RIPA buffer (Thermo Scientific) with protease inhibitors (Complete Protease Inhibitor Cocktail Tablets, Roche) and phosphatase inhibitors (Halt Phosphatase Inhibitor, Thermo Scientific, and Na3VO4, 1 mM) and cleared by centrifugation. Proteins were quantified by BCA assay (Thermo Scientific), diluted in reducing lamelli buffer, denatured by incubation at 95° C., run on mini Protean TGX Ready Gels (Bio-Rad Laboratories), transferred to a nitrocellulose membrane, blocked, and incubated with primary antibodies for p-ERK1/2 (Cell Signaling Technologies, clone D13.14.4E), p-AKT (Cell Signaling Technologies, clone D9E), beta-tubulin (Cell Signaling Technologies, clone 9F3), beta-actin (Sigma, clone AC-15), or IGF-1R (Cell Signaling Technologies, #3027). Immunoreactive bands were developed using horseradish peroxidase-conjugated secondary antibodies (Bio-Rad Laboratories) and ECL substrate (GE Healthcare).
# Brpkp110 cells = experiment: Brpkp110 cell proliferation, MTS assay; format: cell-based, mouse; details: in vitro, 2 days
# Procedure: as §2
# osteopontin (SPP1) = experiment: LC-MS/MS of culture supernatants from Brpkp110 cells; format: cell-based, mouse; details: 200 nM, 40 hrs
# Procedure: Supernatants were collected, centrifuged, passed through a 0.22 μm filter, and concentrated by centrifugation in Amicon 3000 MWCO tubes (EMD Millipore). Concentrated sups were run 0.5 cm on a NuPage 12% Gel with MES buffer, extracted, and digested with trypsin.
# Liquid chromatography tandem mass spectrometry (LC-MS/MS) analysis was performed by the Wistar Proteomics Facility using a Q Exactive Plus mass spectrometer (Thermo Scientific) coupled with a Nano-ACQUITY UPLC system (Waters). Samples were injected onto a UPLC Symmetry trap column (180 μm i.d.×2 cm packed with 5 μm C18 resin; Waters), and tryptic peptides were separated by RP-HPLC on a BEH C18 nanocapillary analytical column (75 μm i.d.×25 cm, 1.7 μm particle size; Waters) using a gradient formed by solvent A (0.1% formic acid in water) and solvent B (0.1% formic acid in acetonitrile). Peptides were eluted at 200 nL/min for 5-30% B over 225 min, 30-80% B over 5 min, constant 80% B for 10 min before returning to 5% B over 1 min. A 30-min blank gradient was run between sample injections to minimize carryover. Eluted peptides were analyzed by the mass spectrometer set to repetitively scan m/z from 400 to 2000. […]
# MS data were analyzed with MaxQuant 1.5.2.8 software^42. […]
# human T cells [4] = experiment: Cytokine rescue of human T cell proliferation from MEK inhibition; format: cell-based
# Procedure: Proliferation of CD8 T cells after 7 days is shown.
# FIG. 2D is a graph showing that human PBMCs were activated as in FIG. 2B with the indicated compounds, BKM120=2 μM.
# Reported are percentages of cells that proliferated with GDC0973 relative to vehicle treatment with the same cytokines after 7 days. Stains are not depicted.
# T cell stimulation—For human T cell proliferation assays, peripheral blood lymphocytes were obtained by leukapheresis/elutriation and Miltenyi bead-purified and K562 cells expressing human CD32 were generated as previously described^41. K32 were γ-irradiated (100 Gy) and loaded with anti-CD3 (500 ng/ml, clone OKT3; eBioscience) plus anti-CD28 (500 ng/ml, clone 15E8; EMD Millipore) antibodies at room temperature for 10 minutes. PBMCs were labeled with CELLTRACE Violet stain (Invitrogen) according to the manufacturer's instructions and cocultured with loaded K32 cells at a 10:1 T cells:K32 ratio or activated with ConA (2 μg/ml, Sigma). Proliferation of stimulated T cells was determined 7 days later by FACS and Division Index was calculated using FlowJo software.
compound,measurement,setting,value
C[C@]1(O)C[C@@H](c2nc(-c3ccc4ccc(-c5ccccc5)nc4c3)c3c(N)nccn32)C1 [OSI906],proliferation of human T cells in response to aAPC coated with agonistic CD3 and CD28 antibodies,human T cells [1],did not impact
same,activity on T cells,human T cells [2]; except at a high concentration,did not show any activity
same,tumor cell proliferation of MCF-7 cells,MCF-7 tumor cells,a reduction in tumor cell proliferation at concentrations that did not affect T cells
same,activity on A2780 cells,[3],did not show any activity
"CCCCCCCCCCCCCC(=O)O[C@@H]1[C@@H](C)[C@@]2(O)[C@@H](C=C(CO)C[C@]3(O)C(=O)C(C)=C[C@@H]23)[C@@H]2C(C)(C)[C@]12OC(C)=O [PMA, phorbol-12-myristate-13-acetate]",ERK phosphorylation under PI3K inhibition,ERK1/2 phosphorylation; without fully restoring AKT phosphorylation,completely overcomes the suppressive effect
CC(=O)Nc1cccc(-n2c(=O)n(C3CC3)c(=O)c3c(Nc4ccc(I)cc4F)n(C)c(=O)c(C)c32)c1 [trametinib],growth compared to vehicle,Brpkp110 cells,70%
same,EC50,"human T cells [2]; T-cell, 168 h, human T cells activated with ConA for 7 days, N/A = ambiguous curve fits or EC50 greater than the highest concentration tested (25 μM)",0.337 nM
same,decrease of osteopontin (SPP1) in Brpkp110 supernatants,osteopontin (SPP1),> 18 fold
"IL-15: recombinant human IL-15 (Novoprotein), proliferative cytokine",rescue of the defect in ERK phosphorylation in the presence of BKM120,ERK1/2 phosphorylation; pan-PI3K inhibitor BKM120 present,unable to rescue
same,rescue of early TCR-induced MAPK signaling (ERK1/2 phosphorylation) from MEK inhibition,ERK1/2 phosphorylation; within 10 minutes,can rescue
same,rescue of T cell proliferation in the presence of the MEK inhibitors,human T cells [4]; GDC0973 or trametinib,able to rescue T cell proliferation
same,rescue of T cell expansion when PI3K and MEK inhibitors were combined,human T cells [4]; trametinib + BKM120,could not be fully rescued
